From patent US20240423961A1, “1H-1,2,3-TRIAZOLE-4-CARBOXYLIC ACIDS FOR TREATMENT OF HYPEROXALURIA AND KIDNEY STONES” (CANTERO THERAPEUTICS, INC., priority 2021, published 2024)
Read-outs that look alike come from different tables or passages of the source.

Tests used:
glycolate oxidase (GO) = molecular target: T1, glycolate oxidase (GO) (Homo sapiens, UniProt Q9UJM8); test: Pharmacokinetic-pharmacodynamic (PK/PD) modeling of GO inhibition; details: PK/PD modeling of Phase 1 data
T1 construct: healthy adult volunteers received single doses of Compound 1a; from tissue; host or cells: liver of healthy adult human volunteers (in vivo, Phase 1 study)
T1 sequence (Q9UJM8 1-370): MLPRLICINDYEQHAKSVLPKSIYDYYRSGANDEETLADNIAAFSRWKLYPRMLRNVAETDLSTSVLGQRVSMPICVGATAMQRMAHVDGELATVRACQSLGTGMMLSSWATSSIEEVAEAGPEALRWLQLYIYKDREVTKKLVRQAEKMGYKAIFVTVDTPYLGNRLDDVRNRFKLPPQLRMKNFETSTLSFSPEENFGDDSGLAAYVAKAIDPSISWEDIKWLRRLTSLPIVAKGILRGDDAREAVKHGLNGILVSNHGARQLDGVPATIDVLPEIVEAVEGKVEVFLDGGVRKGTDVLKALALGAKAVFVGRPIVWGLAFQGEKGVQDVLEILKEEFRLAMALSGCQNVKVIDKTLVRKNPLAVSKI
Source text: This study provides dosing and safety information for Compound 1a in patients with PH1 and recurrent stone formers with hyperoxaluria due to hepatic overproduction of oxalate. Pharmacokinetic data supports once daily administration of Compound 1a and rapid onset of action. […] Details of the study are presented in Example 2.

[1] = Phase 1 SAD/MAD study: plasma pharmacokinetics of Compound 1a (LC-MS-MS, noncompartmental analysis); format: in vivo, human; details: human, plasma, oral; for half-life: read-out: t1/2 (converted); for Cmax at 7 days: read-out: Day 7 Cmax; for Tmax at 7 days: read-out: Day 7 Tmax
Protocol: Pharmacokinetics: Human K2-ethylenediaminetetraacetic acid (K2-EDTA) plasma samples were analyzed for Compound 1a by a validated method over a range of 1.0 to 1000 ng/mL based on the analysis of 100 μL of sample. Human plasma containing Compound 1a and the internal standard, Compound 1a-D4, was extracted using liquid-liquid extraction and analyzed by a Sciex API 4000 LC-MS-MS equipped with an HPLC column. The peak area of the m/z 370.2→298.0 Compound 1a product ion was measured against the peak area of the m/z 374.3→302.4 Compound 1a-D4 internal standard product ion. Quantitation was performed using a weighted 1/x^2 linear least squares regression analysis generated from calibration standards prepared on the day of extraction.
Pharmacokinetic analysis: Pharmacokinetic calculations based on Compound 1a plasma concentrations were performed using noncompartmental analysis in Phoenix WinNonlin (Certara, Princeton, New Jersey). […] Accumulation ratio based on Cmax was calculated as (Cmax,day 7)/(Cmax, day 1).
Subject disposition: Six cohorts of 6 to 8 subjects each (N=up to 48) were administered single doses of 40, 120, 360, 1,000, 2,000, and 3,000 mg of Compound 1a in Part A under fasting conditions. Following a 2-week washout, subjects in the 1,000 mg cohort were administered a second 1,000 mg single dose following a high-fat breakfast. Six cohorts of 8 healthy subjects each were administered multiple doses of 75 mg […] (qd), 125 mg every 12 hours (q12 h), 500 mg q12 h, 500 mg qd, 750 mg qd, and 1,000 mg qd for 7 days in the MAD Part B (FIG. 1).

[2] = 75 mg, MAD 75 mg qd for 7 days, average
[3] = 125 mg, MAD 125 mg q12h for 7 days, average
[4] = 500 mg, MAD 500 mg q12h for 7 days, average
[5] = 500 mg, MAD 500 mg qd for 7 days, average
[6] = 750 mg, MAD 750 mg qd for 7 days, average
[7] = 1000 mg, MAD 1000 mg qd for 7 days, average

**Q.** Which results are given for O.O=C([O-])c1nn[nH]c1Oc1ccc(-c2ccc(C3CC(F)(F)C3)cc2)cc1.[Na+] [Compound 1a, sodium 5-((4′-(3,3-difluorocyclobutyl)-[1,1′-biphenyl]-4-yl)oxy)-1H-1,2,3-triazole-4-carboxylate monohydrate]?
**A.** inhibition of GO (glycolate oxidase (GO)): up to 97%; Cmax ([1]; 40 mg, single dose 40 mg, healthy volunteers, geometric mean): 2040 ng/mL; Tmax ([1]; 40 mg, single dose 40 mg, healthy volunteers, geometric mean (geometric CV %), read-out: Tmax): 1.9 h; half-life ([1]; 40 mg, single dose 40 mg, healthy volunteers, geometric mean (geometric CV %)): 25 h; AUC(0-t) ([1]; 40 mg, single dose 40 mg, healthy volunteers, geometric mean, read-out: AUClast): 13.9 µg·h/mL; AUC(0-t) ([1]; 75 mg, MAD 75 mg qd for 7 days, average, read-out: Day 7 AUC0-24): 23.9 µg·h/mL; Cmax at 7 days [1, 2]: 3420 ng/mL; Tmax at 7 days [1, 2]: 2.45 h; Cmax ([1]; 120 mg, single dose 120 mg, healthy volunteers, geometric mean): 5020 ng/mL; Tmax ([1]; 120 mg, single dose 120 mg, healthy volunteers, geometric mean (geometric CV %), read-out: Tmax): 2.3 h; half-life ([1]; 120 mg, single dose 120 mg, healthy volunteers, geometric mean (geometric CV %)): 22 h; AUC(0-t) ([1]; 120 mg, single dose 120 mg, healthy volunteers, geometric mean, read-out: AUClast): 41 µg·h/mL; AUC(0-t) ([1]; 125 mg, MAD 125 mg q12h for 7 days, average, read-out: Day 7 AUC0-12): 45.6 µg·h/mL; Cmax at 7 days [1, 3]: 6450 ng/mL; Tmax at 7 days [1, 3]: 2.04 h; Cmax ([1]; 360 mg, single dose 360 mg, healthy volunteers, geometric mean): 10500 ng/mL; Tmax ([1]; 360 mg, single dose 360 mg, healthy volunteers, geometric mean (geometric CV %), read-out: Tmax): 2.3 h; half-life ([1]; 360 mg, single dose 360 mg, healthy volunteers, geometric mean (geometric CV %)): 26 h; AUC(0-t) ([1]; 360 mg, single dose 360 mg, healthy volunteers, geometric mean, read-out: AUClast): 83.2 µg·h/mL; AUC(0-t) ([1]; 500 mg, MAD 500 mg q12h for 7 days, average, read-out: Day 7 AUC0-12): 342 µg·h/mL; Cmax at 7 days [1, 4]: 43800 ng/mL; Tmax at 7 days [1, 4]: 1.44 h; AUC(0-t) ([1]; 500 mg, MAD 500 mg qd for 7 days, average, read-out: Day 7 AUC0-24): 133 µg·h/mL; Cmax at 7 days [1, 5]: 17000 ng/mL; Tmax at 7 days [1, 5]: 2.35 h; AUC(0-t) ([1]; 750 mg, MAD 750 mg qd for 7 days, average, read-out: Day 7 AUC0-24): 214 µg·h/mL; Cmax at 7 days [1, 6]: 24300 ng/mL; Tmax at 7 days [1, 6]: 2.62 h; AUC(0-t) ([1]; 1000 mg, MAD 1000 mg qd for 7 days, average, read-out: Day 7 AUC0-24): 303 µg·h/mL; Cmax at 7 days [1, 7]: 29900 ng/mL; Tmax at 7 days [1, 7]: 2.18 h; Cmax ([1]; 1000 mg, single dose 1000 mg, healthy volunteers, geometric mean): 17200 ng/mL; Tmax ([1]; 1000 mg, single dose 1000 mg, healthy volunteers, geometric mean (geometric CV %), read-out: Tmax): 2.5 h; half-life ([1]; 1000 mg, single dose 1000 mg, healthy volunteers, geometric mean (geometric CV %)): 28 h; AUC(0-t) ([1]; 1000 mg, single dose 1000 mg, healthy volunteers, geometric mean, read-out: AUClast): 184 µg·h/mL; Tmax ([1]; 1000 mg, single dose of 1,000 mg, fasted, read-out: average Tmax): 3 h; half-life ([1]; 1000 mg, single dose of 1,000 mg, fasted): ~26.8 h; Tmax ([1]; 1000 mg, single dose of 1,000 mg, fed, read-out: average Tmax): 5.9 h; half-life ([1]; 1000 mg, single dose of 1,000 mg, fed): ~25.2 h; Cmax ([1]; 2000 mg, single dose 2000 mg, healthy volunteers, geometric mean): 25600 ng/mL; Tmax ([1]; 2000 mg, single dose 2000 mg, healthy volunteers, geometric mean (geometric CV %), read-out: Tmax): 2.9 h; half-life ([1]; 2000 mg, single dose 2000 mg, healthy volunteers, geometric mean (geometric CV %)): 23 h
